Here are results for 38 compounds from patent US10023575B2, “Cyclic ether derivatives of pyrazolo[1,5-a]pyrimidine-3-carboxyamide” (Boehringer Ingelheim International GmbH, priority 2015, dated 2018).

A value given as a limit tells only on which side of the number the result lay.

The target in series [1] is PDE 2A (Homo sapiens (Human), UniProt O00408). Nature of the series: Phosphodiesterase (PDE) 2A assay with fluorescent substrate (IMAP, fluorescence polarization). Type of series: biochemical. Conditions: labeled cAMP 30 nM, read-out: PDE2 IC50. As for the experimental part:
(§1) The PDE reaction cleaves cAMP to AMP. The IMAP system (Molecular Device) using fluorescence polarization (FP) as detection principle was used to measure enzyme activity. A fluorescent labeled cAMP was used as substrate for the reaction, generating a labeled AMP. The fluorescent AMP binds specifically to the large M(III)-based nano-particles which reduces the rotational speed of the substrate and thus increases its polarization.
(§2) The inhibition of PDE 2A or 10 enzyme activity was assessed using IMAP-Phosphodiesterase-cAMP fluorescence labeled substrate (Molecular Devices, Order No. R7506), IMAP TR-FRET screening express (Molecular Devices, Order No. R8160, the TR-FRET component will not be used) and PDE 2A or PDE10 protein expressed upon baculovirus infection in SF9 cells. The cells were incubated after infection for ˜3 days and protein production was confirmed by Western Blot. The cells were collected by centrifugation and the pellet frozen in liquid nitrogen before it was resuspended in PBS containing 1% Triton X-100 and protease inhibitors. After 45 min incubation on ice, the cell debris was removed by centrifugation (13.000 rpm, 30 min).
(§3) All reactions were performed in 384 well plates, Perkin Elmer black optiplates and IMAP reaction buffer with 0.1% Tween20 (kit component)
(§4) Compounds were serial diluted in DMSO. With an intermediate dilution step with reaction buffer DMSO concentration was reduced to achieve 1% DMSO in the assay reaction. Setup of the assay started with 10 μl enzyme (˜10 ng/well, depending on prep. batch), 5 μl compound, reaction was started by addition of 5 μl labeled cAMP (30 nM, final concentration), immediately mixed for 15 seconds on a Eppendorf mixmate (2000 rpm) followed by an incubation at room temperature for 90 minutes in the dark. Reaction is stopped by adding of 60 μl binding buffer for FP/cAMP (kit component).
(§5) Each assay plate contained wells with vehicle controls (1% DMSO) for the measurement of non-inhibited reaction (=100% control) and wells without enzyme as 0% controls.
(Fluorescence polarisation rises when a labelled molecule tumbles more slowly, as on binding a larger partner.)

Series [2] addresses PDE10 (Homo sapiens (Human), UniProt Q9Y233). The experiment in a line: Phosphodiesterase (PDE) 10 assay with fluorescent substrate (IMAP, fluorescence polarization). Type of series: biochemical. Conditions: labeled cAMP 30 nM. As for the experimental part: as §1, §2, §3, §4, §5
Series [3] is described as follows: Plasma protein binding with equilibrium dialysis, human plasma. It counts as in vitro ADME. Conditions: human, pooled human plasma (with NaEDTA), pH 7.4, human plasma, equilibrium dialysis 2 hours 37° C., read-out: PPB HUM % BINDING (converted). From the text:
Plasma Protein Binding (Determination of Human and Rat Plasma Protein Binding with Equilibrium Dialysis)
This equilibrium dialysis (ED) technique is used to determine the approximate in vitro fractional binding of test compounds to human and rat plasma proteins.
Dianorm Teflon dialysis cells (micro 0.2) are used. Each cell consists of a donor and an acceptor chamber, separated by an ultrathin semipermeable membrane with a 5 kDa molecular weight cutoff.
Stock solutions for each test compound are prepared in DMSO at 1 mM and diluted to a final concentration of 1.0 μM. The subsequent dialysis solutions are prepared in pooled human and rat plasma (with NaEDTA)
Aliquots of 200 μL dialysis buffer (100 mM potassium phosphate, pH 7.4) are dispensed into the buffer chamber. Aliquots of 200 μL test compound dialysis solution are dispensed into the plasma chambers. Incubation is carried out for 2 hours under rotation at 37° C.
At the end of the dialysis period, the dialysate is transferred into reaction tubes. The tubes for the buffer fraction contain 0.2 ml Acetonitril/water (80/20). Aliquots of 25 μl of the plasma dialysate are transferred into deep well plates and mixed with 25 μl Acetonitril/water (80/20), 25 μl buffer, 25 μl calibration solution and 25 μl Internal Standard solution. Protein precipitation is done by adding 200 μl Acetonitrile. Aliquots of 50 μl of the buffer dialysate are transferred into deep well plates and mixed with 25 μl blank plasma, 25 μl Internal Standard solution and 200 μl Acetonitril. Samples are measured on HPLC-MS/MS-Systems and evaluated with Analyst-Software.
Percent bound is calculated with the formula: % bound=(plasma concentration−buffer concentration/plasma concentration)×100 and % free is calculated as difference.
Background: In equilibrium dialysis free small molecules cross a membrane that holds back macromolecules.

PDE10, sequence (Q9Y233 whole entry): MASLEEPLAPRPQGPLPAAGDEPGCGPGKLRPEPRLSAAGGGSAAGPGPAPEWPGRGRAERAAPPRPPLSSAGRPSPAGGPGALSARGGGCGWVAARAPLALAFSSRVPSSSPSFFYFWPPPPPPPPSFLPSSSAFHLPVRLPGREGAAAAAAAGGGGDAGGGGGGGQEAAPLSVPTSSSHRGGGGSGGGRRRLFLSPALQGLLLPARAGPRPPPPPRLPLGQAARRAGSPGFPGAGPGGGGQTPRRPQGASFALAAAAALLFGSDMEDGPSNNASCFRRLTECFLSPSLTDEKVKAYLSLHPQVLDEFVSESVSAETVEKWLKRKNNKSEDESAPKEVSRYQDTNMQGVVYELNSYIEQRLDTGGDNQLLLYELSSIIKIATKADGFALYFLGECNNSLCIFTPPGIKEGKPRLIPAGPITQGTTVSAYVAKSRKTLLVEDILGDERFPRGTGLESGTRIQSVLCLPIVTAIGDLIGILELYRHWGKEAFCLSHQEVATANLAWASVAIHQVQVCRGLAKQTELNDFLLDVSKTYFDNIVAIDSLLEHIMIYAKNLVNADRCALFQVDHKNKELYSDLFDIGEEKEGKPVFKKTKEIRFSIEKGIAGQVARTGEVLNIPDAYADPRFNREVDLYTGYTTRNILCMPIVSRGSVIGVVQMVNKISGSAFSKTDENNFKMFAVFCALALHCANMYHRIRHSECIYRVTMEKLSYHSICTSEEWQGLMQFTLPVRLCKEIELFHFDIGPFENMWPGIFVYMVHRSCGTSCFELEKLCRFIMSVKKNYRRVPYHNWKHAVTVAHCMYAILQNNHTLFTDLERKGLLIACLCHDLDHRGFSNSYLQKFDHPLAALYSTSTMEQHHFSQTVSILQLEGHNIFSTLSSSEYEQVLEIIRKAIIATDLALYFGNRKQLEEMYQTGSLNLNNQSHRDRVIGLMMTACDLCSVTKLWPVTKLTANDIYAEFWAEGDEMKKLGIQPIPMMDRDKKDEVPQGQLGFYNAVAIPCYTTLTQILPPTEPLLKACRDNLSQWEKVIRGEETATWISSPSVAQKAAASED
PDE 2A, sequence (O00408 whole entry, species assumed): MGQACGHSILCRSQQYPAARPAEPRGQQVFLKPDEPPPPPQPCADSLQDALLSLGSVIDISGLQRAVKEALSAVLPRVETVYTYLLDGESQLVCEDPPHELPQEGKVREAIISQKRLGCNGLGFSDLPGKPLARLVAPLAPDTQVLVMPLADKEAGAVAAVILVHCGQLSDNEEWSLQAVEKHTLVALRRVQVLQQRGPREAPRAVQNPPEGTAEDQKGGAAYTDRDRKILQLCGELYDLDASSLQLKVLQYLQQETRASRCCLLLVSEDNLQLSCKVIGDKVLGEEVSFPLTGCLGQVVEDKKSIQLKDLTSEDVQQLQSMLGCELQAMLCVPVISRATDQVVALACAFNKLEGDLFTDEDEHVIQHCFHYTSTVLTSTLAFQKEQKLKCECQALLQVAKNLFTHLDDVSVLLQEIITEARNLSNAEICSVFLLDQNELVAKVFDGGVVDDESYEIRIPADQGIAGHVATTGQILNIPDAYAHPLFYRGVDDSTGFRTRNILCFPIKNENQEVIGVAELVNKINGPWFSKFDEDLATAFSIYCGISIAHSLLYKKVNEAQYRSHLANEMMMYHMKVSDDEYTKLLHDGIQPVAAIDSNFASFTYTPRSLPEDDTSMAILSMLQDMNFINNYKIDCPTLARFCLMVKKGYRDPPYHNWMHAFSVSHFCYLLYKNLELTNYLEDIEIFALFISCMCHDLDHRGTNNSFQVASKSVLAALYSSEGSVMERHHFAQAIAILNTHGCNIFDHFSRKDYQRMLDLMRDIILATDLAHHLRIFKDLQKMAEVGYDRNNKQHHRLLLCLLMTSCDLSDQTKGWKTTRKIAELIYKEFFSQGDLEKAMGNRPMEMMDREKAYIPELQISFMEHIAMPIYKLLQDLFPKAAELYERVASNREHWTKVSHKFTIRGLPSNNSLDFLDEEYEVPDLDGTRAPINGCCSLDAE

As to `O=C(NC1(c2ccc(C(F)(F)F)nc2)CCOCC1O)c1cnn2cc(C3CC3)cnc12` (racemic) [Example 52], the values for the IC50 in series [1] and in series [2] were 231 nM and greater than 10000 nM, respectively.

Turning to `CC1(O)COCCC1(NC(=O)c1cnn2cc(C3CC3)cnc12)c1ccc(C(F)(F)F)cc1F` (racemic) [Example 53], the fraction unbound at 2 h, 1 µM in series [3] is 0.183.

`Cc1cnc2c(C(=O)NC3(c4ncc(C(F)(F)F)cc4F)CCOCC3O)cnn2c1` (racemic) [Example 56]: the IC50 in series [1] is 229 nM; in series [2] it was greater than 10000 nM.

Take `O=C(NC1(c2ncc(C(F)(F)F)cc2F)CCOCC1O)c1cnn2cc(C3CC3)cnc12` (racemic) [Example 57]: the IC50 in series [1] was 103 nM; in series [2] it was greater than 10000 nM.

As to `Cc1cnc2c(C(=O)NC3(c4ccc(C(F)(F)F)cc4)CCOCC3O)cnn2c1` (racemic) [Example 59], the IC50 is 60 nM in series [1] and greater than 10000 nM in series [2].

Consider `Cc1nn2cc(C3CC3)cnc2c1C(=O)NC1(c2ncc(C(F)(F)F)cc2F)CCOCC1O` (racemic) [Example 61], for which the IC50 in series [1] turned out to be 19 nM; in series [2] it was 6650 nM.

`O=C(NC1(c2ccc(C(F)(F)F)cn2)CCOCC1O)c1cnn2cc(C3CC3)cnc12` (racemic) [Example 63]: the values for the IC50 in series [1] and in series [2] were 124 nM and greater than 10000 nM, respectively.

Consider `Cc1cnc2c(C(=O)NC3(c4ccc(C(F)(F)F)cn4)CCOCC3O)cnn2c1` (racemic) [Example 64], for which the IC50 was 496 nM in series [1] and greater than 10000 nM in series [2].

Take `Cc1nn2cc(C3CC3)cnc2c1C(=O)NC1(c2ccc(C(F)(F)F)cn2)CCOCC1O` (racemic) [Example 65]: the IC50 in series [1] came to 30 nM; in series [2] it was 9760 nM.

For the compound `O=C(NC1(c2ccc(C(F)(F)F)cc2F)CCOCC1O)c1cnn2cc(C3CC3)cnc12` (single isomer, unassigned) [Example 82b], the IC50 in series [1] turned out to be 40 nM; in series [2] it was 8460 nM.

Turning to `Cc1cnc2c(C(=O)NC3(c4ccc(C(F)(F)F)nc4)CCOCC3O)cnn2c1` (single isomer, unassigned) [Example 87a], the IC50 was 1000 nM in series [1] and greater than 10000 nM in series [2].

For the compound `O=C(NC1(c2ccc(C(F)(F)F)nc2)CCOCC1O)c1cnn2cc(C3CC3)cnc12` (single isomer, unassigned) [Example 89a], the figures for the IC50 in series [1] and in series [2] were 1000 nM and greater than 10000 nM, respectively.

`Cc1nn2cc(C3CC3)cnc2c1C(=O)NC1(c2ncc(C(F)(F)F)cc2F)CCOCC1O` (single isomer, unassigned) [Example 90a]: the IC50 was found to be 200 nM in series [1] and 8590 nM in series [2].

As to `Cc1nn2cc(C3CC3)cnc2c1C(=O)NC1(c2ncc(C(F)(F)F)cc2F)CCOCC1O` (single isomer, unassigned) [Example 90b], the IC50 in series [1] stood at 14 nM; in series [2], 7350 nM.

For the compound `Cc1cnc2c(C(=O)NC3(c4ccc(Cl)cc4F)CCOCC3)c(C)nn2c1` [Example 4], the IC50 in series [1] worked out at 48 nM; in series [2], 550 nM.

Regarding `Cc1cnc2c(C(=O)NC3(c4ccc(Cl)cc4F)CCOCC3)cnn2c1` [Example 5], the IC50 came to 258 nM in series [1] and 12200 nM in series [2].

As to `O=C(NC1(c2ccc(F)cc2Cl)CCOCC1)c1cnn2cc(C3CC3)cnc12` [Example 6], the values for the IC50 in series [1] and in series [2] were 199 nM and greater than 10000 nM, respectively.

Turning to `O=C(NC1(c2ccc(Cl)cc2F)CCOCC1)c1cnn2cc(C3CC3)cnc12` [Example 7], the figures for the IC50 in series [1] and in series [2] were 77 nM and 9110 nM, respectively.

In the case of `O=C(NC1(c2ccc(C(F)(F)F)cc2)CCOCC1)c1cnn2cc(C3CC3)cnc12` [Example 8], the results for the half-inhibitory concentration (IC50) in series [1] and in series [2] were 69 nM and greater than 10000 nM, respectively.

`Cc1cnc2c(C(=O)NC3(c4ccc(C(F)(F)F)cc4)CCOCC3)cnn2c1` [Example 9]: the 50% inhibitory concentration (IC50) in series [1] is 117 nM; in series [2], greater than 10000 nM.

In the case of `Cc1nn2cc(C3CC3)cnc2c1C(=O)NC1(c2ccc3ccccc3n2)CCOCC1` [Example 11], the IC50 in series [1] is 297 nM; in series [2], 1470 nM.

As for `Cc1cnc2c(C(=O)NC3(c4ccc5ccccc5n4)CCOCC3)cnn2c1` [Example 12], the IC50 was 1650 nM in series [1] and greater than 10000 nM in series [2].

Consider `O=C(NC1(c2ccc(Br)cc2)CCOCC1)c1cnn2cc(C3CC3)cnc12` [Example 13], for which the IC50 in series [1] was 359 nM; in series [2] it was 9910 nM.

In the case of `O=C(NC1(c2ccc(OC(F)F)c(F)c2)CCOCC1)c1cnn2cc(C3CC3)cnc12` [Example 14], the IC50 in series [1] is 456 nM; in series [2], 8430 nM.

Consider `Cc1cnc2c(C(=O)NC3(c4ccc(OC(F)F)c(F)c4)CCOCC3)cnn2c1` [Example 15], for which the IC50 was 746 nM in series [1] and greater than 10000 nM in series [2].

`O=C(NC1(c2ccc(Cl)c(F)c2)CCOCC1)c1cnn2cc(C3CC3)cnc12` [Example 16]: the values for the IC50 in series [1] and in series [2] were 537 nM and greater than 10000 nM, respectively.

Regarding `Cc1cnc2c(C(=O)NC3(c4ncc(C(F)(F)F)cc4F)CCOCC3)c(C)nn2c1` [Example 18], the IC50 in series [1] is 129 nM; in series [2] it was 8630 nM.

`Cc1cnc2c(C(=O)NC3(c4ncc(C(F)(F)F)cc4F)CCOCC3)cnn2c1` [Example 19]: the IC50 in series [1] is 519 nM; in series [2], greater than 10000 nM.

On to `O=C(NC1(c2ncc(C(F)(F)F)cc2F)CCOCC1)c1cnn2cc(C3CC3)cnc12` [Example 20], for which the IC50 in series [1] was 172 nM; in series [2], greater than 10000 nM.

Consider `Cc1cnc2c(C(=O)NC3(c4ccc(C(F)(F)F)cn4)CCOCC3)c(C)nn2c1` [Example 22], for which the 50% inhibitory concentration (IC50) in series [1] is 119 nM; in series [2] it was 9920 nM.

Take `O=C(NC1(c2ccc(C(F)(F)F)cn2)CCOCC1)c1cnn2cc(C3CC3)cnc12` [Example 23]: the IC50 was 232 nM in series [1] and greater than 10000 nM in series [2].

Regarding `Cc1cnc2c(C(=O)NC3(c4ccc(C(F)(F)F)cn4)CCOCC3)cnn2c1` [Example 24], the IC50 was 754 nM in series [1] and greater than 10000 nM in series [2].

With `Cc1cnc2c(C(=O)NC3(c4ccc(C(F)(F)F)nc4)CCOCC3)c(C)nn2c1` [Example 26], the IC50 in series [1] is 174 nM; in series [2], greater than 10000 nM.

In the case of `O=C(NC1(c2ccc(C(F)(F)F)nc2)CCOCC1)c1cnn2cc(C3CC3)cnc12` [Example 27], the IC50 is 534 nM in series [1] and greater than 10000 nM in series [2].

With `Cc1cnc2c(C(=O)NC3(c4ccc(C(F)(F)F)nc4)CCOCC3)cnn2c1` [Example 28], the IC50 in series [1] was 834 nM; in series [2], greater than 10000 nM.

With `Cc1nn2cc(C3CC3)cnc2c1C(=O)NC1(c2cnc(C(F)(F)F)c(F)c2)CCOCC1` [Example 29], the IC50 in series [1] is 661 nM; in series [2] it was 5930 nM.

`O=C(NC1(c2ccc(C(F)(F)F)cc2F)CCOCC1=O)c1cnn2cc(C3CC3)cnc12` (stereo not drawn) [Example 66]: the IC50 was 25 nM in series [1] and greater than 10000 nM in series [2].

In the case of `Cc1cnc2c(C(=O)NC3(c4ccc(C(F)(F)F)cc4F)CCOCC3=O)cnn2c1` (stereo not drawn) [Example 67], the figures for the IC50 in series [1] and in series [2] were 50 nM and greater than 10000 nM, respectively.

As usually defined, the IC50 is the point on the concentration scale where inhibition reaches its midpoint.
